Assay results from patent US20250154219A1, “PEPTIDE ANALOGS” (Adepthera LLC, priority 2017, published 2025).

Experiments:
CLR/RAMP1 receptor [1] = molecular target: T1, CLR/RAMP1 receptor (Homo sapiens, UniProt O60894+Q16602); experiment: CLR/RAMP1 cAMP receptor-activation assay (agonist mode); type: cell-based; conditions: for CLR/RAMP1 Max Activity % of positive control: agonist mode, positive control β-CGRP;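 on all read-outs here: Dose–response over 10 threefold dilutions from 1.0 µM, run in duplicate, luminescent cAMP detection (RLU), activity scaled between vehicle control (0%) and maximal control (100%)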
Description: (§1) Using a receptor activation assay, the dose-dependent stimulatory response of peptide agonists on a CLR/RAMP1 receptor, a CLR/RAMP2, or a CLR/RAMP3 receptor complex was determined. A cell line carrying the recombinant CLR/RAMP1, CLR/RAMP2, or a CLR/RAMP3 receptor was employed in the assay. Peptide agonist activities were tested, in duplicate, at 10 different concentrations, starting with 1.0 μM and serially diluted 3-fold, in DMSO. […] The CLR/RAMP1 CAMP, CLR/RAMP2 arrestin, and CLR/RAMP3 CAMP assays (DiscoveRx, Fremont, Calif.) were used.
(§2) The pharmacology of superagonistic activity of synthetic analogs was studied in cells that stably express CLR/RAMP1 (1321N1 cells), CLR/RAMP2 (CHO-K1 cells), or CLR/RAMP3 (CHO-K1 cells) receptors.
(§3) For the analysis of Gs-coupled CAMP production, cAMP Hunter cell lines were expanded from freezer stocks, and cells were seeded in a total volume of 20 μL into white walled, 384-well microplates and incubated at 37 C for the appropriate time prior to testing. The CAMP modulation was determined using the DiscoverX HitHunter CAMP XS+ assay. For agonistic activity determination, cells were incubated with sample to induce response. Media was aspirated from cells and replaced with 15 μL 2:1 HBSS/10 mM Hepes: CAMP XS+Ab reagent. […] For Gs-coupled agonistic assays, percentage activity is calculated using the following formula: % Activity=100%×(mean RLU of test sample−mean RLU of vehicle control)/(mean RLU of MAX control−mean RLU of vehicle control).

CLR/RAMP2 receptor [2] = molecular target: T2, CLR/RAMP2 receptor (Homo sapiens, UniProt O60895+Q16602); experiment: CLR/RAMP2 arrestin receptor-activation assay (agonist mode); type: cell-based; conditions: for EC50: CHO-K1 cells stably expressing CLR/RAMP2, arrestin assay; for CLR/RAMP2 Max Activity % of positive control: agonist mode, positive control ADM;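 on all read-outs here: agonist dose-response in recombinant cell lines stably expressing each receptor complex, duplicate wells over 10 threefold dilutions from a top concentration of 1.0 µM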
Description: as §1, §2
(§4) For the Arrestin assays, PathHunter cell lines (Discoverx Inc.) were expanded from freezer stocks, and seeded in a total volume of 20 μL into white walled, 384-well microplates and incubated at 37 C for the appropriate time prior to testing. For agonist determination, cells were incubated with sample to induce response. […] The microplates were read following signal generation with a PerkinElmer Envision™ instrument for chemiluminescent signal detection.
(§5) The compound activity was analyzed using a CBIS data analysis suite (ChemInnovation, CA). For agonist mode assays, percentage activity was calculated using the following formula:
(§6) % Activity=100%×(mean RLU of test sample−mean RLU of vehicle control)/(mean MAX control ligand−mean RLU of vehicle control).

CLR/RAMP3 receptor [3] = molecular target: T3, CLR/RAMP3 receptor (Homo sapiens, UniProt O60896+Q16602); experiment: CLR/RAMP3 cAMP receptor-activation assay (agonist mode); type: cell-based; conditions: for EC50: CHO-K1 cells stably expressing CLR/RAMP3, cAMP assay; for CLR/RAMP3 Max Activity % of positive control: agonist mode
Description: as §1, §2, §3

apelin receptor AGTRL1 = molecular target: T4, apelin receptor AGTRL1 (Homo sapiens, UniProt P35414); experiment: AGTRL1 cAMP assay; type: cell-based
T4 sequence (P35414 1-380): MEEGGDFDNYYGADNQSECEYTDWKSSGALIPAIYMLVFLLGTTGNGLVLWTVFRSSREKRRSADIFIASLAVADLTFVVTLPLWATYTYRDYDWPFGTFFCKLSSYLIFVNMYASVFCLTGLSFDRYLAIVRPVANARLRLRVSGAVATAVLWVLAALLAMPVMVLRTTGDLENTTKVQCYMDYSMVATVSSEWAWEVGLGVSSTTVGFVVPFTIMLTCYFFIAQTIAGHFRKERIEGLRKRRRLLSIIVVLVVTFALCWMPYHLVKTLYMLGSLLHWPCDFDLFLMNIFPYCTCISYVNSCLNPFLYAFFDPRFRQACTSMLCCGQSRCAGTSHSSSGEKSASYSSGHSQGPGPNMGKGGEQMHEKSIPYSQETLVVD
Description: (§7) The agonistic activities toward SSTR2, NTSR1, and AGTRL1 were assayed with an SSTR2 arrestin assay, an NTSR1 calcium flux assay, and an AGTRL1 CAMP assay (Discoverx Inc.), respectively.
as §3

[4] = molecular target: neurotensin receptor 1 (NTSR1) (Homo sapiens, UniProt P30989); experiment: NTSR1 calcium flux assay; type: cell-based
Description: The agonistic activities toward SSTR2, NTSR1, and AGTRL1 were assayed with an SSTR2 arrestin assay, an NTSR1 calcium flux assay, and an AGTRL1 CAMP assay (Discoverx Inc.), respectively. The antagonistic activities toward BDKRB1 and AGTR1 were assayed with a BDKRB1 calcium flux assay and an AGTR1 calcium flux assay (Discoverx Inc.), respectively.
For the analysis of calcium flux, cell lines were expanded from freezer stocks and seeded in a total volume of 20 μL into black-walled, clear-bottom, Poly-D-lysine coated 384-well microplates and incubated at 37 C for the appropriate time prior to testing. […] Compound agonist activity was measured on a FLIPR Tetra (MDS), and calcium mobilization was monitored for 2 minutes and 10 μL 4× sample in HBSS/20 mM Hepes was added to the cells 5 seconds into the assay.
The compound activity was analyzed using a CBIS data analysis suite (ChemInnovation, CA), and percentage activity is calculated using the following formula: % Activity=100%×(mean RFU of test sample−mean RFU of vehicle control)/(mean MAX RFU control ligand−mean RFU of vehicle control). For antagonist assays, percentage inhibition is calculated using the following formula: % Inhibition=100%×(1−(mean RFU of test sample−mean RFU of vehicle control)/(mean RFU of EC80 control−mean RFU of vehicle control)).

CLR/RAMP1 receptor [5] = molecular target: T1, CLR/RAMP1 receptor; experiment: CLR/RAMP1 cAMP assay, antagonist mode (CGRP-stimulated); type: cell-based; conditions: for CLR/RAMP1 Max Activity % of positive control (antagonist): antagonist mode; for receptor selectivity of antagonists, in words: CLR/RAMP1 versus CLR/RAMP2
Description: (§8) A cell line carrying the recombinant CLR/RAMP1, CLR/RAMP2, or a CLR/RAMP3 receptor was employed in the assay. […] The CLR/RAMP1 CAMP, CLR/RAMP2 arrestin, and CLR/RAMP3 CAMP assays (DiscoveRx, Fremont, Calif.) were used.
(§9) For the analysis of antagonistic activity, synthetic analogs were pre-incubated with the cells before adding the reference ligand at its EC80. […] For the determination of antagonistic activity, cells were pre-incubated with sample followed by agonist challenge at the EC80 concentration. […] After appropriate compound incubation, assay signal was generated through incubation with 20 μL cAMP XS+ED/CL lysis cocktail for one hour followed by incubation with 20 μL cAMP XS+EA reagent for three hours at room temperature. Microplates were read following signal generation with a PerkinElmer Envision™ instrument for chemiluminescent signal detection.
(§10) For the antagonistic activity assay, percentage inhibition is calculated using the following formula: % Inhibition=100%×(1−(mean RLU of test sample−mean RLU of vehicle control)/(mean RLU of EC80 control−mean RLU of vehicle control)).

CLR/RAMP2 receptor [6] = molecular target: T2, CLR/RAMP2 receptor; experiment: CLR/RAMP2 arrestin assay, antagonist mode (ADM-stimulated); type: cell-based
Description: A cell line carrying the recombinant CLR/RAMP1, CLR/RAMP2, or a CLR/RAMP3 receptor was employed in the assay. Peptide agonist activities were tested, in duplicate, at 10 different concentrations, starting with 1.0 μM and serially diluted 3-fold, in DMSO. […] The CLR/RAMP1 CAMP, CLR/RAMP2 arrestin, and CLR/RAMP3 CAMP assays (DiscoveRx, Fremont, Calif.) were used.
For the analysis of antagonistic activity, synthetic analogs were pre-incubated with the cells before adding the reference ligand at its EC80. […] For antagonistic activity determination, cells were pre-incubated with antagonist followed by agonist challenge at the EC80 concentration. […] Then, 5 μL of 6× EC80 agonist in assay buffer was added to the cells and incubated at 37 C or room temperature for 90 or 180 minutes.
The microplates were read following signal generation with a PerkinElmer Envision™ instrument for chemiluminescent signal detection.
% Activity=100%×(mean RLU of test sample−mean RLU of vehicle control)/(mean MAX control ligand−mean RLU of vehicle control). For antagonistic activity assays, percentage inhibition was calculated using the following formula: % Inhibition=100%×(1−(mean RLU of test sample−mean RLU of vehicle control)/(mean RLU of EC80 control−mean RLU of vehicle control)).

CLR/RAMP3 receptor [7] = molecular target: T3, CLR/RAMP3 receptor; experiment: CLR/RAMP3 cAMP assay, antagonist mode; type: cell-based
Description: as §8, §9, §10

[8] = molecular target: T5, bradykinin receptor 1 (BDKRB1) (Homo sapiens, UniProt P46663); experiment: BDKRB1 calcium flux assay, antagonist mode; type: cell-based; conditions: IC50 column pair
T5 sequence (P46663 1-353): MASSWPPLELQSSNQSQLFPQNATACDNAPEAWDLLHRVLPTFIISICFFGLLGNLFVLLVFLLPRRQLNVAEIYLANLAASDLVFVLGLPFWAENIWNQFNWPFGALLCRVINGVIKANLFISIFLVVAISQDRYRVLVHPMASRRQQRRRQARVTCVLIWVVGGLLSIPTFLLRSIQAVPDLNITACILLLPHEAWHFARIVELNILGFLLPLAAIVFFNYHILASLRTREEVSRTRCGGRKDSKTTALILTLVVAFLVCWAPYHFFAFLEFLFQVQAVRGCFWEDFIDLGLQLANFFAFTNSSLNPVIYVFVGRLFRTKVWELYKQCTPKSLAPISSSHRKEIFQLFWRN
Description: (§11) The antagonistic activities toward BDKRB1 and AGTR1 were assayed with a BDKRB1 calcium flux assay and an AGTR1 calcium flux assay (Discoverx Inc.), respectively.
(§12) For antagonist determination, cells were pre-incubated with sample followed by agonist challenge at the EC80 concentration. Intermediate dilution of sample stocks was performed to generate 3× sample in assay buffer. After dye loading, cells were removed from the incubator and 10 μL 3× sample was added. Cells were incubated for 30 minutes at room temperature in the dark to equilibrate plate temperature. […] Compound antagonistic activity was measured on a FLIPR Tetra (MDS), and calcium mobilization was monitored for 2 minutes and 10 μL EC80 agonist in HBSS/20 mM Hepes was added to the cells 5 seconds into the assay.
(§13) For antagonist assays, percentage inhibition is calculated using the following formula: % Inhibition=100%×(1−(mean RFU of test sample−mean RFU of vehicle control)/(mean RFU of EC80 control−mean RFU of vehicle control)).

[9] = molecular target: T6, type 1 angiotensin II receptor AGTR1 (Homo sapiens, UniProt P30556); experiment: AGTR1 calcium flux assay, antagonist mode; type: cell-based
T6 sequence (P30556 1-359): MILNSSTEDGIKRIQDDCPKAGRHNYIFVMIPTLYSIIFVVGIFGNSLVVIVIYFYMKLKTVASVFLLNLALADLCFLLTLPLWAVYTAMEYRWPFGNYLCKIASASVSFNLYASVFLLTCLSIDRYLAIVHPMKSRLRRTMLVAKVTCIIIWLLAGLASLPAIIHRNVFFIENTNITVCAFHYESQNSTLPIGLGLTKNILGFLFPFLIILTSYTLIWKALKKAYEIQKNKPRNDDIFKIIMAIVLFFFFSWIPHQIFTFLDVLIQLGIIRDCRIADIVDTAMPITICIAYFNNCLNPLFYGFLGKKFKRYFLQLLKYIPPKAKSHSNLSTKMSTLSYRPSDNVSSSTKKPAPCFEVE
Description: as §11, §12, §13

[10] = molecular target: somatostatin receptor SSTR2 (Homo sapiens, UniProt P30874); conditions: arrestin assay
Chain of somatostatin receptor SSTR2 (P30874 whole entry): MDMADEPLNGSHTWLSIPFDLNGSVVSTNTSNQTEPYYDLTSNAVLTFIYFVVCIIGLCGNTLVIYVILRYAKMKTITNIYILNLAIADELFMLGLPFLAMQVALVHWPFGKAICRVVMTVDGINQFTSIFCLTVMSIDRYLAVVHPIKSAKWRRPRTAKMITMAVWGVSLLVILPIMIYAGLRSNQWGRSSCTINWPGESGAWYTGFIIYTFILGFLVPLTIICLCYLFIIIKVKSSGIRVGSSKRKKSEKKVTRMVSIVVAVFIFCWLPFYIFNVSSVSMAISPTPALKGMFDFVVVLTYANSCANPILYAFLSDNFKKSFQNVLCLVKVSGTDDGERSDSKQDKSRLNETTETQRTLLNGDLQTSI
Description: as §7, §4, §5, §6

T2 sequence (Q16602 23-461): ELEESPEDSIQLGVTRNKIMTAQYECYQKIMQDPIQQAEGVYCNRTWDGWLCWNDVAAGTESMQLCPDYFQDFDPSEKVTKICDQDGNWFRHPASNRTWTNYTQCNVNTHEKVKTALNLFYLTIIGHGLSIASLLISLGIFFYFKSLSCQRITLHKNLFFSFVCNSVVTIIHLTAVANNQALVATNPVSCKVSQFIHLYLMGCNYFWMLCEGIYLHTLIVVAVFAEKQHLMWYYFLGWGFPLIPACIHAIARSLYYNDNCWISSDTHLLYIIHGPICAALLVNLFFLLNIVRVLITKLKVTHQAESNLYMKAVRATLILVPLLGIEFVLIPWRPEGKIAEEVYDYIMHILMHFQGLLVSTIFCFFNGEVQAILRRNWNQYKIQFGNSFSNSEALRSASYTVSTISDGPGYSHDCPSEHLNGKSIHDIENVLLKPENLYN
T2 sequence (O60895 43-175): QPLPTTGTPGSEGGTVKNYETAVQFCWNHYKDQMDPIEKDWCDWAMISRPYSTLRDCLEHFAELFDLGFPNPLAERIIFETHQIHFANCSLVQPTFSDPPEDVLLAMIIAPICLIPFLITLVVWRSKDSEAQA
T1 sequence (Q16602 23-461): as the sequence (Q16602 23-461) above
T1 sequence (O60894 27-148): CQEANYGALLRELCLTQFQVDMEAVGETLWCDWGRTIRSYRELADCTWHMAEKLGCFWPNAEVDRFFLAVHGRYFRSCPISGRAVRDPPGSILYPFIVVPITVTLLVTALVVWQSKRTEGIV
T3 sequence (Q16602 23-461): as the sequence (Q16602 23-461) above
T3 sequence (O60896 24-148): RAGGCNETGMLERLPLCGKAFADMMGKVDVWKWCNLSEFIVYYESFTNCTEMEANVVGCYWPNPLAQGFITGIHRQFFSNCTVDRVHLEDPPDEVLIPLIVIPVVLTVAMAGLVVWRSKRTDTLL
Chain of neurotensin receptor 1 (NTSR1) (P30989 whole entry): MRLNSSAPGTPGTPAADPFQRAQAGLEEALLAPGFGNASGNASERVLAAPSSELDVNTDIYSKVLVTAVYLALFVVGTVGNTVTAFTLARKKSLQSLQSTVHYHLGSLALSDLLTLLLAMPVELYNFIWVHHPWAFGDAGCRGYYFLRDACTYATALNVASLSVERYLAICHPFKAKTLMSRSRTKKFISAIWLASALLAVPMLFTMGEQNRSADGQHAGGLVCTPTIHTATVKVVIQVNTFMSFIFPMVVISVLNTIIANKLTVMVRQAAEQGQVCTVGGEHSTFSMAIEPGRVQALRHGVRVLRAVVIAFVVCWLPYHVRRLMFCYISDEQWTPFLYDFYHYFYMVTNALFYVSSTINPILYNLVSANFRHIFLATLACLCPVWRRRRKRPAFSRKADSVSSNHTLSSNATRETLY

Row | Compound | CLR/RAMP1 Max Activity % of positive control (CLR/RAMP1 receptor [1]) | CLR/RAMP2 Max Activity % of positive control (CLR/RAMP2 receptor [2]) | CLR/RAMP1 Max Activity % of positive control (antagonist) (CLR/RAMP1 receptor [5]) | CLR/RAMP2 Max Activity % of positive control (antagonist) (CLR/RAMP2 receptor [6]) | other results
1 | miniPEG-K(PAL)GCRFGTCTVQKLAHQIYQFTDKDSAPVDPSSPHSY-NH2 [SEQ ID NO: 48] | 78 % of positive control | 77 % of positive control | – | – | EC50 (CLR/RAMP1 receptor [1]; 1321N1 cells stably expressing CLR/RAMP1, cAMP assay): 0.3 nM; EC50 (CLR/RAMP2 receptor [2]): 0.2 nM; EC50 (CLR/RAMP3 receptor [3]): 0.07 nM; CLR/RAMP3 Max Activity % of positive control (CLR/RAMP3 receptor [3]): 141 % of positive control
2 | (G1p)RPRLSHKGPMPF [Apelin 13, reference compound] | – | – | – | – | AGTRL1 Max Activity (apelin receptor AGTRL1): 100 % of positive controls
3 | KKPYIL [[Lys 8,9] Neurotensin, reference compound] | – | – | – | – | NTSR1 Max Activity [4]: 100 % of positive controls
4 | (Glp)RPRLSHKGP(Nle)PF-miniPEG-K(PAL)GCRFGTCTVQKLAHQIYQFTDKDVAPRSKISPQGY-NH2 [SEQ ID NO: 228] | 130 % of positive control | 74 % of positive control | – | – | AGTRL1 Max Activity (apelin receptor AGTRL1): 97 % of positive controls
5 | miniPEG-K(PAL)GCRFGTCTVQKLAHQIYQFTDKDVAPRSKISPQGY-NH2 [SEQ ID NO: 101] | 56 % of positive control | 74 % of positive control | – | – | receptor selectivity of agonists, in words (CLR/RAMP2 receptor [2]; CLR/RAMP2 versus CLR/RAMP1): CLR/RAMP2-selective; CLR/RAMP3 Max Activity % of positive control (CLR/RAMP3 receptor [3]): 129 % of positive control
6 | olcegepant [BIBN4096, reference compound] | 105 % of positive control | 0 % of positive control | 105 % of positive control | 0 % of positive control | –
7 | Pyr(glu)-LYENKPRRPYIL-miniPEG-K(Pal)VQKLSAPVDPSSPHSY-NH2 [SEQ ID NO: 224] | – | – | 99 % of positive control | 100 % of positive control | NTSR1 Max Activity [4]: 57 % of positive controls
8 | miniPEG-K(PAL)GCRFGTCTVQKLAHQIYQFTDKDKDNSAPVDPSSPHSY-NH2 [SEQ ID NO: 28] | 54 % of positive control | 143 % of positive control | – | – | EC50 (CLR/RAMP2 receptor [2]): 0.5 nM; EC50 (CLR/RAMP3 receptor [3]): 0.06 nM; CLR/RAMP3 Max Activity % of positive control (CLR/RAMP3 receptor [3]): 117 % of positive control
9 | Pal-KVQKLAHQSAPVDPSSPHSY-NH2 [SEQ ID NO: 124] | – | – | 95 % of positive control | 103 % of positive control | CLR/RAMP3 Max Activity % of positive control (antagonist) (CLR/RAMP3 receptor [7]): 102 % of positive control
10 | Ace-KRPPGFSPFR-miniPEG-K(Pal)VQKLAHQIYQFTDKDVAPRSKISPQGY-NH2 [SEQ ID NO: 149] | – | – | 101 % of positive control | 99 % of positive control | receptor selectivity of antagonists, in words (CLR/RAMP1 receptor [5]): pan-specific
11 | PEG5000-K[PAL]VQKLAHQIYQFTDKDSAPVDPSSPHSY-NH2 [SEQ ID NO: 192] | – | – | 101 % of positive control | 104 % of positive control | –
12 | miniPEG-K(PAL)GCRFGTCTVQKLAHQIYQFTDKDKDNVAPRSKISPQGY-NH2 [SEQ ID NO: 69] | 70 % of positive control | 147 % of positive control | – | – | CLR/RAMP3 Max Activity % of positive control (CLR/RAMP3 receptor [3]): 127 % of positive control
13 | Ace-KRPPGFS-DβNal-I-miniPEG-K(PAL)GCRFGTCTVQKLAHQIYQFTDKDVAPRSKISPQGY-NH2 [SEQ ID NO: 231] | 115 % of positive control | 46 % of positive control | – | – | BDKRB1 Max Activity [8]: 109 % of positive controls
14 | Ace-Y(D-Ala)GF(D-Leu)-miniPEG-K(Pal)VQKLSAPVDPSSPHSY-NH2 [SEQ ID NO: 145] | – | – | 99 % of positive control | 100 % of positive control | receptor selectivity of antagonists, in words (CLR/RAMP1 receptor [5]): CLR/RAMP1-selective
15 | Ace-NFVPTNVGPFAF-NH2 [SEQ ID NO: 144] | – | – | 98 % of positive control | 0 % of positive control | antagonistic activity toward CLR/RAMP1 and/or CLR/RAMP2, in words (CLR/RAMP1 receptor [5]): minimal antagonizing activities
16 | Ace-YGGFLRRIRPKLK-miniPEG-K(Pal)VQKLSAPVDPSSPHSY-NH2 [SEQ ID NO: 146] | – | – | 102 % of positive control | 98 % of positive control | receptor selectivity of antagonists, in words (CLR/RAMP1 receptor [5]): CLR/RAMP1-selective
17 | Pal-KVQNLSAPVDPSSPHSY-NH2 [SEQ ID NO: 141] | – | – | 43 % of positive control | 14 % of positive control | antagonistic activity toward CLR/RAMP1 and/or CLR/RAMP2, in words (CLR/RAMP1 receptor [5]): minimal antagonizing activities
18 | Sar-RVYVHPA-miniPEG-K(PAL)GCRFGTCTVQKLAHQIYQFTDKDVAPRSKISPQGY-NH2 [SEQ ID NO: 234] | 132 % of positive control | 86 % of positive control | – | – | AGTR1 Max Activity (IC50 column pair) [9]: 104 % of positive controls
19 | CSCC[C@H](NC(=O)[C@H](C)NC(=O)[C@@H]1CCCN1C(=O)[C@H](CC(N)=O)NC(=O)[C@H](CO)NC(=O)[C@H](CC(N)=O)NC(=O)[C@H](C)NC(=O)[C@@H](N)CO)C(=O)N[C@@H](C)C(=O)N1CCC[C@H]1C(=O)N[C@@H](CCCNC(=N)N)C(=O)N[C@@H](CCC(=O)O)C(=O)N[C@@H](CCCNC(=N)N)C(=O)N[C@@H](CCCCN)C(=O)N[C@@H](C)C(=O)NCC(=O)N[C@H]1CSSC[C@@H](C(=O)O)NC(=O)[C@H](CO)NC(=O)[C@H]([C@@H](C)O)NC(=O)[C@H](Cc2ccccc2)NC(=O)[C@H]([C@@H](C)O)NC(=O)[C@H](CCCCN)NC(=O)[C@H](Cc2c[nH]c3ccccc23)NC(=O)[C@H](Cc2ccccc2)NC(=O)[C@H](Cc2ccccc2)NC(=O)[C@H](CC(N)=O)NC(=O)[C@H](CCCCN)NC1=O [Somatostatin 28] | – | – | – | – | SSTR2 Max Activity [10]: 102 % of positive controls
